The results in this text go back to US9504676B2, “Molecules inhibiting a metabolic pathway involving the Syk protein tyrosine kinase and method for identifying said molecules” (CENTRE NATIONAL DE LA RECHERCHE SCIENTIFIQUE, priority 2008, dated 2016).

SMILES strings stand for the structures.

Assay [1] has as its target T1, murine Syk tyrosine kinase protein (GST:Syk 6-242) (Mus musculus, UniProt P48025).
T1 construct: made in house
Put plainly: ADA method: displacement of the binding of scFv G4G11 with Syk (ELISA). To be noted: small molecules at 10 μM, scFv G4G11 100 nM; read-out: In vit. inhib.: mean inhibition % of the binding of scFv G4G11 with Syk in the ADA method. The text has this:
The term “percentage of inhibition” of the binding of an antibody or antibody fragment with Syk protein, particularly refers to the ratio […], where A consists of the intensity of a signal proportional to the quantity of an antibody or antibody fragment bound with Syk protein in the absence of a molecule according to the invention and B the intensity of the same signal in the presence of a molecule according to the invention under the same conditions. […] This test may be performed for example according to the protocol described in example 3-2) hereinafter.
The inventors developed the ADA (Antigen Displacement Assay) method to identify small molecules capable of displacing the association with scFv G4G11 with Syk. […] To understand the mode of action of C-13, the inventors firstly identified the binding site of G4G11 using the SPOT method^16. An epitope located on the N-terminal SH2 domain of Syk, comprising amino acids 65-74 and 100% preserved in mouse, rat and human sequences, was identified.
The ADA method was then applied to each of these […] molecules to measure the ability thereof to inhibit the binding of scFv G4G11 with Syk.
(§1) • 1) Chemical products and antibodies. A chemical bank of 3000 molecules (a varied subset) was acquired from ChemBridge, Inc. (San Diego, Calif.). Stocks of solutions of small molecules were prepared at a rate of 10 mM in DMSO (dimethylsulphoxide), except for C-13 (methyl 2-{5-[(3-benzyl-4-oxo-2-thioxo-1,3-thiazolidin-5-ylidene)methyl]-2-furyl}benzoate, ChemBridge ID No. 6197026) prepared in DMF (dimethylformamide). Unless specified otherwise, all the reagents were supplied by Sigma. Dinitrophenyl (DNP) hapten was acquired from Calbiochem. Sepharose GammaBind G and all the secondary antibodies were supplied by GE Health Amersham Biosciences. The anti-Syk, anti-Lyn, anti-Btk, anti-PLC-γ1, anti-PLC-γ2, anti-LAT, anti-SLP-76, anti-p38, anti-JNK, anti-Vav, anti-Akt1 and 9E10 antibodies conjugated with HRP were acquired from Santa Cruz Biotechnology. The anti-phospho-p44/42 MAP Kinase, anti-p44/42 MAP Kinase, anti-phospho-p38, anti-phospho-JNK, anti-phospho-Akt1 antibodies were acquired from Cell Signaling. The anti-phospho-LAT and anti-phospho-PLC-γ1 antibodies were supplied by Biosource and the anti-phospho-SLP-76 antibodies by BD Pharmingen. The 4G10 anti-phosphotyrosine monoclonal antibody was acquired from Upstate Biotechnology. • 2) ADA method: ELISA type high-speed molecule screening test, based on antibody displacement (WO 2005106481). The recombinant fusion protein GST:Syk 6-242^8 comprising the residues 6 to 242 of murine Syk tyrosine kinase protein illustrated in FIG. 8B (SEQ ID No. 4) was immobilised on an ELISA plate at a final concentration of 10 μg ml^−1. For the screening of the chemical molecule bank, the small molecules, diluted in PBS at a final concentration of 10 μM were added to the wells for one hour at ambient temperature, before adding the fragment scFv G4G11 at a final concentration of 100 nM for an additional hour. The binding of G4G11 with Syk was assessed by adding the 9E10 monoclonal antibody conjugated with HRP detecting the amino acid sequence EQKLISEEDLN of human c-myc protein located at the C-terminal end of the scFv fragment. To generate Syk mutants, targeted mutagenesis was used on GST:Syk 6-242 protein and the binding of G4G11 with the mutants was assessed in the presence of 5 μM of C-13. • 3) Cells, culture conditions and functional tests. Anti-DNP 2682-I mouse monoclonal antibody was used as the culture supernatant of hybridomas containing 1 μg/ml of IgE. Femoral bone marrow cells were sampled and cultured in Opti-MEM medium (Gibco) supplemented with 10% foetal calf serum and 4% X63 transfectant supernatant secreting murine IL-3. RBL-2H3 (ATCC) leukaemic rat basophil cells were maintained in a single-layer culture in RPMI 1640 medium supplemented with 10% foetal calf serum (Gibco). […]

The next assay concerns RBL-2H3 cells. Description: cells. The class given is cell-based, rat. The note with it: Rattus norvegicus; RBL-2H3 cells; read-out: Degran. IC50: concentration inhibiting mast cell degranulation by 50%. As to the method:
These 87 molecules were also tested in vitro to assess the ability thereof to inhibit RBL-2H3 cell degranulation (see table 1).
as §1, with “(Gibco). Measurements of β-hexosaminidase released by the RBL-2H3 cells were performed as described previously^7, except that, after 12-16 hours of incubation with anti-DNP IgE (0.5 μg/ml), the cells were incubated for 90 min at 37° C. in RPMI medium supplemented with the specified concentrations of C-13 or DMF (0.25%). The cells were stimulated for 45 min with DNP-BSA (50 ng ml^−1) or ionomycin (1.5 μM). The BMMC cells were incubated for one hour at 37° C. with anti-DNP IgE (100 ng/ml). They were then incubated with C-13 (3 μM) or DMF (0.3%) for 3 hours at 37° C., and stimulated with varied concentrations of DNP-BSA. The level of β-hexosaminidase released was measured 10 min later and the TNF-α titration was performed by means of a cytotoxicity test on L929 cells as described previously^10, 3 hours after stimulation. The results illustrated in FIG. 3 are representative of three independent experiments. • 4) Immunoprecipitations, in vitro kinase assays and immunodetection.” for “(Gibco).”

Consider `COc1ccc(OC)c(C2C(C(=O)c3ccccc3)=C(O)C(=O)N2CCCn2ccnc2)c1` (stereo not shown) [Molecule 5, 4-benzoyl-5-(2,5-dimethoxyphenyl)-3-hydroxy-1-[3-(1H-imidazol-1-yl)propyl]-1,5-dihydro-2H-pyrrol-2-one], for which the inhibition at 10 µM in assay [1] is 77.5%. Moreover, the IC50 with RBL-2H3 cells was more than 10 µg/mL.
Taken in the same sequence, the figures for `COc1ccccc1C1C(C(=O)c2cc(C)ccc2C)=C(O)C(=O)N1CCN1CCOCC1` (stereo not shown) [Molecule 7, 4-(2,5-dimethylbenzoyl)-3-hydroxy-5-(2-methoxyphenyl)-1-[2-(4-morpholinyl)ethyl]-1,5-dihydro-2H-pyrrol-2-one] were 72% and more than 10 µg/mL.
For `COc1cc(C2C(C(=O)c3cccs3)=C(O)C(=O)N2CCc2ccccc2)cc(Br)c1O` (stereo not shown) [Molecule 8, 5-(3-bromo-4-hydroxy-5-methoxyphenyl)-3-hydroxy-1-(2-phenylethyl)-4-(2-thienylcarbonyl)-1,5-dihydro-2H-pyrrol-2-one], in that order: 71% and more than 10 µg/mL.
For `O=C(C1=C(O)C(=O)N(Cc2cccnc2)C1c1cccc(Oc2ccccc2)c1)c1ccc(F)cc1` (stereo not shown) [Molecule 9, 4-(4-fluorobenzoyl)-3-hydroxy-5-(3-phenoxyphenyl)-1-(3-pyridinylmethyl)-1,5-dihydro-2H-pyrrol-2-one], in assay [1], the inhibition at 10 µM was 71%. For the same compound, in the assay on RBL-2H3 cells, the IC50 was more than 10 µg/mL.
`COc1ccc(OC)c(C2C(C(=O)c3ccc(C)cc3)=C(O)C(=O)N2Cc2cccnc2)c1` (stereo not shown) [Molecule 11, 5-(2,5-dimethoxyphenyl)-3-hydroxy-4-(4-methylbenzoyl)-1-(3-pyridinylmethyl)-1,5-dihydro-2H-pyrrol-2-one]: the inhibition at 10 µM in assay [1] was determined as 70.5%. For the same compound, the IC50 in the assay with RBL-2H3 cells was more than 10 µg/mL.
`CCOC(=O)c1[nH]c(N2C(=O)C(O)=C(C(=O)c3ccccc3)C2c2ccc(OC)cc2)nc1C` (stereo not shown) [Molecule 12]: in assay [1], the inhibition at 10 µM came to 69%. The IC50 in the assay with RBL-2H3 cells was more than 10 µg/mL.
As for `COc1ccc(C(=O)C2=C(O)C(=O)N(CCN3CCOCC3)C2c2cccnc2)c(C)c1` (stereo not shown) [Molecule 14, 3-hydroxy-4-(4-methoxy-2-methylbenzoyl)-1-[2-(4-morpholinyl)ethyl]-5-(3-pyridinyl)-1,5-dihydro-2H-pyrrol-2-one], in assay [1], the inhibition at 10 µM amounted to 67.5%. In addition, the IC50 in the assay with RBL-2H3 cells is more than 10 µg/mL.
With `COC(=O)c1sc(N2C(=O)C(O)=C(C(=O)c3ccccc3)C2c2ccc(C)cc2)nc1C` (stereo not shown) [Molecule 16, methyl 2-[3-benzoyl-4-hydroxy-2-(4-methylphenyl)-5-oxo-2,5-dihydro-1H-pyrrol-1-yl]-4-methyl-1,3-thiazole-5-carboxylate], the inhibition at 10 µM in assay [1] came to 67%. Besides, the IC50 in the assay with RBL-2H3 cells was more than 10 µg/mL.
Take `CC(C)c1ccc(C2C(C(=O)c3ccc(F)cc3)=C(O)C(=O)N2CCCN2CCOCC2)cc1` (stereo not shown) [Molecule 19, 4-(4-fluorobenzoyl)-3-hydroxy-5-(4-isopropylphenyl)-1-[3-(4-morpholinyl)propyl]-1,5-dihydro-2H-pyrrol-2-one]: the inhibition at 10 µM in assay [1] was 60%. The IC50 with RBL-2H3 cells was more than 10 µg/mL.
Taken in the same sequence, the figures for `Cc1cccc(OCC(=O)Nc2cccc3c(NC(=O)COc4cccc(C)c4)cccc23)c1` [Molecule 20] were 60% and more than 10 µg/mL.
On to `COc1cc(NS(=O)(=O)c2ccc(NC(C)=O)cc2)c(OC)cc1NC(=O)c1ccccc1` [Molecule 21, N-[4-({[4-(acetylamino)phenyl]sulphonyl}amino)-2,5-dimethoxyphenyl] benzamide], for which, in assay [1], the inhibition at 10 µM is 58%. Further, the IC50 in the assay with RBL-2H3 cells is more than 10 µg/mL.
In the case of `Cc1ccc(-n2c3c(cc(C(=O)NC4CC(C)(C)NC(C)(C)C4)c2=O)C(=O)CC(C)(C)C3)cc1` [Molecule 22, 7,7-dimethyl-1-(4-methylphenyl)-2,5-dioxo-N-(2,2,6,6-tetramethyl-4-piperidinyl)-1,2,5,6,7,8-hexahydro-3-quinoline carboxamide], in assay [1], the inhibition at 10 µM was 57.5%. Further, the IC50 with RBL-2H3 cells was more than 10 µg/mL.
With `O=C(O)CCC(=O)N(Cc1ccccc1)Cc1cn(-c2ccccc2)nc1-c1cccs1` [Molecule 23, 4-(benzyl{[1-phenyl-3-(2-thienyl)-1H-pyrazol-4-yl]methyl}amino)-4-oxo butanoic acid], in assay [1], the inhibition at 10 µM stood at 57%. The IC50 in the assay on RBL-2H3 cells is more than 10 µg/mL.
Take `COc1cccc(C2C(C(=O)c3ccc(F)cc3)=C(O)C(=O)N2CCCN2CCOCC2)c1` (stereo not shown) [Molecule 24, 4-(4-fluorobenzoyl)-3-hydroxy-5-(3-methoxyphenyl)-1-[3-(4-morpholinyl)propyl]-1,5-dihydro-2H-pyrrol-2-one]: the inhibition at 10 µM in assay [1] was determined as 57%. The IC50 in the assay on RBL-2H3 cells is more than 10 µg/mL.
